Source: US6737383B1, “Herbicidal oxadiazolidines” (priority 1999, dated 2004)

Columns and labels:
bedstraw = assay: Test B pre/postemergence bedstraw; format: in vivo, Galium aparine
Method in brief: (§1)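 Test chemicals in a non-phytotoxic solvent mixture with surfactant were sprayed preemergence onto planted seeds and postemergence onto plants 2 to 18 cm tall (1- to 4-leaf stage). After twelve to sixteen days in a greenhouse, injury was visually rated against untreated controls from 0 (no effect) to 10 (complete control).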

wild oat = assay: Test B pre/postemergence wild oat; format: in vivo, Avena fatua
Method in brief: as §1

surinam grass = assay: Test B pre/postemergence surinam grass; format: in vivo, Brachiaria decumbens
Method in brief: as §1

bamyardgrass = assay: Test B flood test barnyardgrass; format: in vivo, Echinochloa crus-galli; conditions: for Plant response rating, Barnyardgrass (0 to 10 scale, 0 is no effect, 10 is complete control) / Barnyardgrass plant response rating (0 to 10 scale, 0 is no effect, 10 is complete control): flood test species, visual evaluation after twelve to sixteen days; for Plant response rating, Barnyardgrass (0 to 10 scale, 0 is no effect, 10 is complete control): Pre-emergence; for Barnyardgrass plant response rating (0 to 10 scale, 0 is no effect, 10 is complete control): under heading Pre-emergence
Method in brief: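 Read-out is a visual response score from 0 (no effect) to 10 (complete control), assigned by comparison with untreated controls. Treatment was applied at the 2-leaf stage, and plants stayed in the greenhouse for twelve to sixteen days before scoring.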

[1] = Postemergence, Rate 250 g/ha, scale 0 to 10
[2] = Rate 125 g/ha, Postemergence, scale 0 to 10, 0 is no effect, 10 is complete control
[3] = Postemergence, Rate 500 g/ha, scale of 0 to 10 where 0 is no effect and 10 is complete control
[4] = Preemergence, Rate 62 g/ha, scale of 0 to 10 where 0 is no effect and 10 is complete control
[5] = Preemergence, Rate 125 g/ha, scale of 0 to 10 where 0 is no effect and 10 is complete control
[6] = Preemergence, Rate 250 g/ha, scale 0 to 10, 0 is no effect, 10 is complete control
[7] = Preemergence, Rate 500 g/ha, scale 0 to 10, 0 is no effect, 10 is complete control
[8] = Rate 62 g/ha, Postemergence, scale 0 to 10 (0 no effect, 10 complete control)
[9] = Postemergence, Rate 62 g/ha, scale of 0 to 10, 0 is no effect, 10 is complete control
[10] = Postemergence, Rate 125 g/ha, scale 0 to 10, 0 is no effect, 10 is complete control
[11] = Postemergence, Rate 500 g/ha, scale 0 to 10, 0 is no effect, 10 is complete control
[12] = Preemergence, Rate 62 g/ha, scale 0 to 10 (0 no effect, 10 complete control)
[13] = Preemergence, Rate 125 g/ha, scale 0 to 10, 0 is no effect, 10 is complete control
[14] = Preemergence, Rate 500 g/ha, scale of 0 to 10 where 0 is no effect and 10 is complete control
[15] = Rate 250 g/ha, Postemergence, scale of 0 to 10 where 0 is no effect and 10 is complete control
[16] = Rate 250 g/ha, Pre-emergence (flood test species), scale 0 to 10, 0 is no effect, 10 is complete control
[17] = Rate 500 g/ha, Pre-emergence section of Table B, 0 to 10 scale (0 no effect, 10 complete control)

**Q.** For `CC(C)N(C(=O)n1oc(=O)n(CC(=O)N(C)C)c1=O)c1ccc(F)cc1F` [Compound 440], which “Bedstraw plant response rating” value (bedstraw; [1]) is on record?
**A.** 2

**Q.** And the “Bedstraw plant response rating” value (bedstraw; [2])?
**A.** 0

**Q.** What about the “Wild oats plant response rating” value (wild oat; [1]) of the same molecule?
**A.** 0

**Q.** And the “Wild oats plant response rating” value (wild oat; [3])?
**A.** 5

**Q.** What about the “Plant response rating, Wild oats” value (wild oat; [4]) of the same molecule?
**A.** 0

**Q.** What about the “Plant response rating, Wild oats” value (wild oat; [5]) of the same molecule?
**A.** 5

**Q.** And the “Wild oats plant response rating” value (wild oat; [6])?
**A.** 9

**Q.** What about the “Wild oats plant response rating” value (wild oat; [7]) of the same molecule?
**A.** 9

**Q.** And the “Wild oats plant response rating” value (wild oat; [8])?
**A.** 0

**Q.** What about the “Wild oats plant response rating” value (wild oat; [2]) of the same molecule?
**A.** 0

**Q.** And the “B. signalgrass plant response rating” value (surinam grass; Postemergence, Rate 250 g/ha, scale 0 to 10, 0 no effect, 10 complete control)?
**A.** 2

**Q.** And the “B. signalgrass plant response rating” value (surinam grass; [3])?
**A.** 8

**Q.** And the “Plant response rating, B. signalgrass” value (surinam grass; [4])?
**A.** 1

**Q.** What about the “Plant response rating, B. signalgrass” value (surinam grass; [5]) of the same molecule?
**A.** 4

**Q.** And the “B. signalgrass plant response rating” value (surinam grass; [6])?
**A.** 8

**Q.** And the “B. signalgrass plant response rating” value (surinam grass; [7])?
**A.** 8

**Q.** What about the “B. signalgrass plant response rating” value (surinam grass; [8]) of the same molecule?
**A.** 0

**Q.** What about the “B. signalgrass plant response rating” value (surinam grass; [2]) of the same molecule?
**A.** 0

**Q.** What about the “Barnyardgrass plant response rating” value (bamyardgrass; Postemergence block (flood test species), Rate 250 g/ha, scale 0 to 10) of the same molecule?
**A.** 0

**Q.** What about the “Barnyardgrass plant response rating” value (bamyardgrass; Postemergence section (flood test species), Rate 500 g/ha, scale of 0 to 10 where 0 is no effect and 10 is complete control) of the same molecule?
**A.** 0

**Q.** And the “Barnyardgrass plant response rating” value (bamyardgrass; Rate 62 g/ha, Postemergence (flood test), scale 0 to 10, 0 no effect, 10 complete control)?
**A.** 0

**Q.** And the “Barnyardgrass plant response rating” value (bamyardgrass; Rate 125 g/ha, Postemergence section (flood test species), scale 0 to 10, 0 is no effect, 10 is complete control)?
**A.** 0

**Q.** Which results are given for `CCC=CCn1c(=O)on(C(=O)N(c2ccc(Cl)cc2)C(C)C)c1=O` [Compound 552]?
**A.** Bedstraw plant response rating (bedstraw; [9]): 2; Bedstraw plant response rating (bedstraw; [10]): 5; Plant response rating, Bedstraw (bedstraw; [11]): 10; Bedstraw plant response rating (bedstraw; [12]): 0; Bedstraw plant response rating (bedstraw; [13]): 0; Bedstraw plant response rating (0 to 10 scale) (bedstraw; Preemergence, Rate 250 g/ha): 0; Bedstraw plant response rating (bedstraw; [14]): 8; Plant response rating, Bedstraw (bedstraw; [15]): 10; Wild oats plant response rating (wild oat; [9]): 0; Plant response rating, Wild oats (wild oat; [11]): 3; Wild oats plant response rating (wild oat; [12]): 0; Wild oats plant response rating (wild oat; [13]): 0; Wild oats plant response rating (0 to 10 scale) (wild oat; Preemergence, Rate 250 g/ha): 0; Wild oats plant response rating (wild oat; [14]): 6; Plant response rating, Wild oats (wild oat; [15]): 0; B. signalgrass plant response rating (surinam grass; [9]): 0; B. signalgrass plant response rating (surinam grass; [10]): 0; Plant response rating, B. signalgrass (surinam grass; [11]): 0; B. signalgrass plant response rating (surinam grass; [12]): 4; B. signalgrass plant response rating (surinam grass; [13]): 8; B. signalgrass plant response rating (surinam grass; [14]): 9; Plant response rating, B. signalgrass (surinam grass; [15]): 0; Plant response rating, Barnyardgrass (0 to 10 scale, 0 is no effect, 10 is complete control) (bamyardgrass; Rate 62 g/ha): 0; Barnyardgrass plant response rating (0 to 10 scale, 0 is no effect, 10 is complete control) (bamyardgrass; Rate 125 g/ha): 0; Barnyardgrass plant response rating (bamyardgrass; [16]): 0; Barnyardgrass plant response rating (bamyardgrass; [17]): 0

**Q.** Which results are given for `CC(C)N(C(=O)n1oc(=O)n(CCC2OCCO2)c1=O)c1ccccc1` [Compound 560]?
**A.** Bedstraw plant response rating (bedstraw; [9]): 0; Bedstraw plant response rating (bedstraw; [12]): 0; Bedstraw plant response rating (bedstraw; [13]): 0; Bedstraw plant response rating (0 to 10 scale) (bedstraw; Preemergence, Rate 250 g/ha): 5; Bedstraw plant response rating (bedstraw; [14]): 8; Plant response rating, Bedstraw (bedstraw; [15]): 0; Wild oats plant response rating (wild oat; [9]): 0; Plant response rating, Wild oats (wild oat; [3]): 2; Wild oats plant response rating (wild oat; [12]): 0; Wild oats plant response rating (wild oat; [13]): 0; Wild oats plant response rating (0 to 10 scale) (wild oat; Preemergence, Rate 250 g/ha): 5; Wild oats plant response rating (wild oat; [14]): 7; Plant response rating, Wild oats (wild oat; [15]): 2; B. signalgrass plant response rating (surinam grass; [9]): 0; B. signalgrass plant response rating (surinam grass; [10]): 3; Plant response rating, B. signalgrass (surinam grass; [3]): 7; B. signalgrass plant response rating (surinam grass; [12]): 4; B. signalgrass plant response rating (surinam grass; [13]): 7; B. signalgrass plant response rating (0 to 10 scale, 0 is no effect, 10 is complete control) (surinam grass; Preemergence, Rate 250 g/ha): 7; B. signalgrass plant response rating (surinam grass; [14]): 9; Plant response rating, B. signalgrass (surinam grass; [15]): 6; Plant response rating, Barnyardgrass (0 to 10 scale, 0 is no effect, 10 is complete control) (bamyardgrass; Rate 62 g/ha): 0; Barnyardgrass plant response rating (0 to 10 scale, 0 is no effect, 10 is complete control) (bamyardgrass; Rate 125 g/ha): 0; Barnyardgrass plant response rating (bamyardgrass; [16]): 0; Barnyardgrass plant response rating (bamyardgrass; [17]): 0
